# Positions count from the first letter of the chain named. Values joined by “and” are separate entries in the source; they are usually repeats but may differ in a detail not shown here. Identical values can stand only once. Like-named read-outs stand apart in the source and are kept apart here.
# Legend:
# Format in all cases: cell-based
# hTA1 C5S = molecular target: T1, hTA1 C5S (Homo sapiens, UniProt Q96RJ0, C5S); assay: GloSensor cAMP accumulation assay, C5S mutant; conditions: for C5S - Normalized Luminescence Counts (N=2): log[Compound], single wells
# T1 construct: expressed in transfected cells; host or cells: HEK293T
# T1 sequence (Q96RJ0 1-339 C5S): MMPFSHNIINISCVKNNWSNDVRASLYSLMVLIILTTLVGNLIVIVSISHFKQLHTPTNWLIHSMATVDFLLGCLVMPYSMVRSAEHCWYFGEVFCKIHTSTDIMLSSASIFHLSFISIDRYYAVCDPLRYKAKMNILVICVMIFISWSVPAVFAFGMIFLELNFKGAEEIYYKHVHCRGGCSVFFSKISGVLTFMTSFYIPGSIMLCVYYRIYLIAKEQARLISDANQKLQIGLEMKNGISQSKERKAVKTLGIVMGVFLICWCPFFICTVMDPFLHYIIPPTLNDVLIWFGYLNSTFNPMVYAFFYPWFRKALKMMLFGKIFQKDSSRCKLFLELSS
# hTA1 C13S = molecular target: T2, hTA1 C13S (Homo sapiens, UniProt Q96RJ0, C13S); assay: GloSensor cAMP accumulation assay, C13S mutant; conditions: for C13S - Normalized Luminescence Counts (N=2): log[Compound], single wells
# T2 construct: expressed in transfected cells; host or cells: HEK293T
# T2 sequence (Q96RJ0 1-339 C13S): T1 sequence (Q96RJ0 1-339 C5S) with S5C, C13S
# hTA1 C178S = molecular target: T3, hTA1 C178S (Homo sapiens, UniProt Q96RJ0, C178S); assay: GloSensor cAMP accumulation assay, C178S mutant; conditions: for C178S - Normalized Luminescence Counts (N=2): log[Compound], single replicates
# T3 construct: expressed in transfected cells; host or cells: HEK293T
# T3 sequence (Q96RJ0 1-339 C178S): T1 sequence (Q96RJ0 1-339 C5S) with S5C, C178S
smiles,measurement,setting,value
CCC(CC1COC(N)=N1)c1ccccc1 (stereo not shown) [Ro5256390],EC50,"hTA1 C5S; EC50, C5S, n=2",9.93 nM
same,"Emax values, Mean","hTA1 C5S; hTA1 C5S, β-PEA = 100, mean of 3 replicates, one line per independent experiment",93.1178
same,C5S - Normalized Luminescence Counts (N=2),hTA1 C5S; M = -5,103.833 and 96.8115 and 93.515 and 109.052 and 73.4937 and 115.059
same,C5S - Normalized Luminescence Counts (N=2),hTA1 C5S; M = -5.522,100.921 and 96.3599 and 95.6826 and 93.2407 and 55.8872 and 98.4881
same,C5S - Normalized Luminescence Counts (N=2),hTA1 C5S; M = -6,105.12 and 94.0343 and 79.8326 and 75.5651 and 84.541 and 101.802
same,C5S - Normalized Luminescence Counts (N=2),hTA1 C5S; M = -6.522,95.389 and 104.217 and 100.289 and 100.214 and 115.957 and 88.6146
same,C5S - Normalized Luminescence Counts (N=2),hTA1 C5S; M = -7,82.6549 and 83.4903 and 89.3381 and 93.6549 and 93.9311 and 89.0289
same,C5S - Normalized Luminescence Counts (N=2),hTA1 C5S; M = -7.522,62.4022 and 62.4925 and 74.2106 and 83.9196 and 70.5248 and 74.2532
same,C5S - Normalized Luminescence Counts (N=2),hTA1 C5S; M = -8,36.7307 and 40.4787 and 36.4823 and 59.3395 and 54.6444 and 53.6087
same,C5S - Normalized Luminescence Counts (N=2),hTA1 C5S; M = -9,8.372 and 7.4241 and 6.656 and 9.834 and 7.901 and 11.353
same,EC50,"hTA1 C5S; pEC50 values, Mean, hTA1 C5S, mean of 3 replicates, one line per independent experiment",15.2 nM and 6.48 nM
same,EC50,"hTA1 C5S; pEC50 ± SEM, C5S, n=2",10 nM
same,Emax,"hTA1 C5S; read-out: Emax values, Mean, hTA1 C5S, β-PEA = 100, mean of 3 replicates, one line per independent experiment",97.6%
same,Emax,"hTA1 C5S; read-out: Span ± SEM (Emax normalized to β-PEA), C5S, n=2",95.4 ± 2.26%
same,ΔpEC50 values (each mutant value - WT average),hTA1 C13S; C13S,-0.1093 and -0.3651
same,Emax values,"hTA1 C13S; C13S, Mean of fit per experiment",104.119
same,EC50,"hTA1 C13S; EC50, C13S, n=2",9.21 nM
same,C13S - Normalized Luminescence Counts (N=2),hTA1 C13S; M = -5,108.406 and 95.388 and 120.776 and 112.887 and 109.603 and 114.083
same,C13S - Normalized Luminescence Counts (N=2),hTA1 C13S; M = -5.522,112.25 and 104.067 and 102.43 and 107.496 and 95.9649 and 109.96
same,C13S - Normalized Luminescence Counts (N=2),hTA1 C13S; M = -6,90.5159 and 87.1282 and 84.9205 and 101.909 and 92.8231 and 104.73
same,C13S - Normalized Luminescence Counts (N=2),hTA1 C13S; M = -6.522,96.2254 and 77.4601 and 94.8551 and 102.052 and 85.8613 and 107.282
same,EC50,"hTA1 C13S; pEC50 values, Mean, hTA1 C13S, mean of 3 replicates, one line per independent experiment",6.86 nM and 12.4 nM
same,Emax,"hTA1 C13S; read-out: Emax values, C13S, Mean of fit per experiment",96.6%
same,Emax,"hTA1 C13S; read-out: Span ± SEM (Emax normalized to β-PEA), C13S, n=2",100 ± 3.73%
same,"ΔpEC50 values (each mutant value - WT average), Mean","hTA1 C178S; C178S, each row one experiment (N=2), 3 replicates",-0.5545 and -0.2923
same,Emax,"hTA1 C178S; C178S, relative to β-PEA",120%
same,"Emax values, Mean","hTA1 C178S; C178S, β-PEA = 100, each row one experiment (N=2), 3 replicates",104.356 and 134.792
same,EC50,"hTA1 C178S; EC50, C178S, n=2",14.1 nM
same,C178S - Normalized Luminescence Counts (N=2),hTA1 C178S; M = -5,102.446 and 115.063 and 100.063 and 98.247 and 134.327 and 139.921
same,C178S - Normalized Luminescence Counts (N=2),hTA1 C178S; M = -5.522,112.587 and 101.839 and 98.2408 and 148.866 and 141.178 and 145.097
same,C178S - Normalized Luminescence Counts (N=2),hTA1 C178S; M = -6,99.8763 and 105.203 and 90.1566 and 163.316 and 171.125 and 157.632
same,C178S - Normalized Luminescence Counts (N=2),hTA1 C178S; M = -6.522,110.577 and 98.2408 and 97.8202 and 140.041 and 136.93 and 126.219
same,C178S - Normalized Luminescence Counts (N=2),hTA1 C178S; M = -7,89.6425 and 86.2313 and 90.5771 and 109.526 and 118.68 and 112.368
same,C178S - Normalized Luminescence Counts (N=2),hTA1 C178S; M = -7.522,61.5581 and 68.0535 and 67.1189 and 100.042 and 97.9478 and 96.7511
same,C178S - Normalized Luminescence Counts (N=2),hTA1 C178S; M = -8,35.9971 and 29.5951 and 33.2867 and 60.9705 and 68.8087 and 90.3489
same,C178S - Normalized Luminescence Counts (N=2),hTA1 C178S; M = -8.522,17.2585 and 16.3239 and 17.6791 and 41.704 and 41.2253 and 41.0458
same,C178S - Normalized Luminescence Counts (N=2),hTA1 C178S; M = -9,9.361 and 5.296 and 6.978 and 20.7921 and 25.9976 and 27.6132
